The results in this text go back to US20140066431A1, “Benzoxazepines as Inhibitors of PI3K/mTOR and Methods of Their Use and Manufacture” (Exelixis, Inc., priority 2010, published 2014).

Assay [1] concerns the target PI3Kα (Homo sapiens, UniProt P42336). Kind of assay: PI3K biochemical assay (ATP consumption, luciferase-luciferin). The protocol: (§1) PI3Kα activity is measured as the percent of ATP consumed following the kinase reaction using luciferase-luciferin-coupled chemiluminescence. Reactions were conducted in 384-well white, medium binding microtiter plates (Greiner). Kinase reactions were initiated by combining test compounds, ATP, substrate (PIP2), and kinase in a 20 μL volume in a buffer solution. The standard PI3Kalpha assay buffer is composed 50 mM Tris, pH 7.5, 1 mM EGTA, 10 mM MgCl2, 1 mM DTT and 0.03% CHAPS. The standard assay concentrations for enzyme, ATP, and substrate are 1.5 nM, 1 μM, and 10 μM, respectively. The reaction mixture was incubated at ambient temperature for approximately 2 h. Following the kinase reaction, a 10 μL aliquot of luciferase-luciferin mix (Promega Kinase-Glo) was added and the chemiluminescence signal measured using a Victor2 plate reader (Perkin Elmer). Total ATP consumption was limited to 40-60% and IC50 values of control compounds correlate well with literature references. Substituting PI3Kα with PI3Kβ, PI3Kγ, or PI3Kδ, the inhibitory activity of the compounds for the other isoforms of I3K were measured.

For assay [2], the target named is PI3Kδ (Homo sapiens, UniProt O00329). Kind of assay: PI3K biochemical assay, PI3Kδ. The settings on record: PIP2 as substrate. The protocol:
as §1

For assay [3], the system named is T-47D cells (PI3Kα-H1047R mutant). Kind of assay: pAKT (T308) ELISA assay, T-47D. The settings on record: Homo sapiens, T47D. The assay is classed as cell-based. As to the method:
(§2) In another embodiment, the pAKT ELISA Assay was performed by seeding cells onto 96-well plates (Corning, 3904) in their respective growth media at the densities listed in Table 3. Cells were incubated at 37° C., 5% CO2 for 48 h (except MDA-MB-453 cells which were cultured in the absence of CO2). Compounds were serially diluted in DMSO and subsequently diluted in serum-free DMEM. Test compounds were added to cells in serum-free DMEM at a final concentration of 0.3% DMSO and incubated for 3 h. Cells were lysed with 130 μL of ice-cold RIPA lysis buffer (50 mM Tris-HCl, pH 7.5; 0.5% sodium deoxycholic acid; 1% Triton X-100; 0.1% SDS; 150 mM NaCl) with protease and phosphatase inhibitors (1 mM EDTA, 1 mM NaF, 20 mM β-glycerophosphate, 1 mM Na-orthovanadate, Complete-Mini EDTA-free, Roche, 11836170001, and Phosphatase Inhibitor Cocktail I, Sigma, P2850), directly in 96-well plates. Cells were lysed on ice for 60-120 min at 4° C. The supernatants were added directly to capture ELISA plates previously pre-coated with rabbit anti-AKT capture antibody. […] The wells were measured for luminescence using a Wallac plate reader at wavelength of 560 nm. After normalization of pAKT signal to total AKT1 signal, IC50 values were determined relative to the DMSO-treated control.
In general terms: ELISA stands for enzyme-linked immunosorbent assay.

The subject of assay [4] is NCI-H460 (PI3K-E545K/KRAS-Q61H). Kind of assay: pAKT (T308) ELISA assay, NCI-H460. It is filed as cell-based. The settings on record: Homo sapiens, PI3KαE545K, read-out: Cellular pAKT (T308) IC50 NCI-H460. The protocol: as §2
Assay [5] concerns SK-OV-3 (PI3Kα H1047R). Kind of assay: pAKT (T308) ELISA assay, SK-OV-3. It is filed as cell-based. The settings on record: Homo sapiens, PI3KαH1047R, IGF1, read-out: Cellular pAKT (T308) IC50 SK-OV-3. As to the method: as §2
Assay [6] concerns PI3Kα-mutated models. Kind of assay: Growth factor induced AKT phosphorylation compared across PI3Kα-mutated models. The assay is classed as cell-based. As to conditions: cell lines of Table 6. The protocol:
Cells were incubated at 37° C., 5% CO2 for 48 h (except MDA-MB-453 cells which were cultured in the absence of CO2). Compounds were serially diluted in DMSO and subsequently diluted in serum-free DMEM. Test compounds were added to cells in serum-free DMEM at a final concentration of 0.3% DMSO and incubated for 3 h. Cells were lysed with 130 μL of ice-cold RIPA lysis buffer (50 mM Tris-HCl, pH 7.5; 0.5% sodium deoxycholic acid; 1% Triton X-100; 0.1% SDS; 150 mM NaCl) with protease and phosphatase inhibitors (1 mM EDTA, 1 mM NaF, 20 mM β-glycerophosphate, 1 mM Na-orthovanadate, Complete-Mini EDTA-free, Roche, 11836170001, and Phosphatase Inhibitor Cocktail I, Sigma, P2850), directly in 96-well plates. Cells were lysed on ice for 60-120 min at 4° C. The supernatants were added directly to capture ELISA plates previously pre-coated with rabbit anti-AKT capture antibody. ELISA assays for pAKT(T308) and total AKT were performed with the pAKT(T308) ELISA kit (Cell Signaling Technology, 7144) and AKT1 ELISA kit (Cell Signaling Technology, 7142). For the pAKT(T308) ELISA, 85 μL of cell lysate was added to each well. For the total AKT1 ELISA, 15 μL of cell lysate and 85 μL of Starting Block buffer (Pierce, 37543) were added to each well.
Cells were incubated at 37° C., 5% CO2 for 48 h (except MDA-MB-453 cells which were cultured in the absence of CO2). […]

Molecules are shown by their SMILES. Where two headings read alike, the source gives them in different places.

Sequence of PI3Kα (P42336 whole entry): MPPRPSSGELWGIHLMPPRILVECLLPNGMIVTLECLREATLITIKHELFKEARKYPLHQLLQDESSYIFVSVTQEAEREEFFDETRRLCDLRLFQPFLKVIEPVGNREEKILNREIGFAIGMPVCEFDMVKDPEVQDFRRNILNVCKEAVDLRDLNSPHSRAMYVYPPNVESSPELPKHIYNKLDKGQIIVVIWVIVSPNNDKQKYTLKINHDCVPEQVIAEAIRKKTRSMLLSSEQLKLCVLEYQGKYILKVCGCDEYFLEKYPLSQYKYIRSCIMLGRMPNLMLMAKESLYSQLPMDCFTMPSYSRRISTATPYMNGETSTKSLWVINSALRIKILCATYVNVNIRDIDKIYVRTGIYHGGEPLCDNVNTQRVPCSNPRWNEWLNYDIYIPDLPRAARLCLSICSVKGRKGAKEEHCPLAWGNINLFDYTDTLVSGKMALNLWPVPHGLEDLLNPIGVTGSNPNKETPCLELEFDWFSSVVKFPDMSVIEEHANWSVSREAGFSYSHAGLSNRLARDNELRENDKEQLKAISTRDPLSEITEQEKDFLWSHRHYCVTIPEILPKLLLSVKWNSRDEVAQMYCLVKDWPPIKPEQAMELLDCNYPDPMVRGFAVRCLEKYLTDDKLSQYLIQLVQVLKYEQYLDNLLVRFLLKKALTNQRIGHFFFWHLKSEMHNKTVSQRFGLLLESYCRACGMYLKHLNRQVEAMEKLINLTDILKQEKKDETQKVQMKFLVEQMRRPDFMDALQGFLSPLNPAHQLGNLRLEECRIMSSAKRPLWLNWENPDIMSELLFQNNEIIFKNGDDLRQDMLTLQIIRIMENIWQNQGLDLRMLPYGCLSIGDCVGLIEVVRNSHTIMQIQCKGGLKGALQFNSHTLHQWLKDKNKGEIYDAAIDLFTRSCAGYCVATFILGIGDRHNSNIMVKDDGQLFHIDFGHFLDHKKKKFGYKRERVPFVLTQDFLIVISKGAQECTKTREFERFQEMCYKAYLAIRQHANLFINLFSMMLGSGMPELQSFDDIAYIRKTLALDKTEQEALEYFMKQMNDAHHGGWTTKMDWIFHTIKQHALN
Sequence of PI3Kα (P27986 whole entry partner): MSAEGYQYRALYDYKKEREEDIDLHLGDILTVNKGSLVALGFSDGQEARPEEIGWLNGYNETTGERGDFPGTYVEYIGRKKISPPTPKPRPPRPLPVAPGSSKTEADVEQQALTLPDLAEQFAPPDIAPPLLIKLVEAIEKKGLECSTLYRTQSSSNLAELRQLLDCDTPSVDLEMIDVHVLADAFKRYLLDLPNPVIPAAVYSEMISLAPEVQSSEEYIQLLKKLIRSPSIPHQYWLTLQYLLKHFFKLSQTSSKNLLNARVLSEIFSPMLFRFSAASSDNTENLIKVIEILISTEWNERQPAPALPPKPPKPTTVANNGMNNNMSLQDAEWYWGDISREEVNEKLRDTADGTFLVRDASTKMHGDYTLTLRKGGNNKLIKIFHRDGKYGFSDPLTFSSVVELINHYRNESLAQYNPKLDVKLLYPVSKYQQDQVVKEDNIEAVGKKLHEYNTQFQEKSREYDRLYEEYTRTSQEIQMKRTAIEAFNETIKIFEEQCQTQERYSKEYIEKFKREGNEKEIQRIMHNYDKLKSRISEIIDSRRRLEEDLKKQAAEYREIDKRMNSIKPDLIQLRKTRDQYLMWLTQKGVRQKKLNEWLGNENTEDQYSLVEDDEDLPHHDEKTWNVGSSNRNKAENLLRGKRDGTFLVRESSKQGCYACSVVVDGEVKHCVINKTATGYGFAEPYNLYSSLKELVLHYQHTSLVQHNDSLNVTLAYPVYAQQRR
Sequence of PI3Kδ (O00329 whole entry): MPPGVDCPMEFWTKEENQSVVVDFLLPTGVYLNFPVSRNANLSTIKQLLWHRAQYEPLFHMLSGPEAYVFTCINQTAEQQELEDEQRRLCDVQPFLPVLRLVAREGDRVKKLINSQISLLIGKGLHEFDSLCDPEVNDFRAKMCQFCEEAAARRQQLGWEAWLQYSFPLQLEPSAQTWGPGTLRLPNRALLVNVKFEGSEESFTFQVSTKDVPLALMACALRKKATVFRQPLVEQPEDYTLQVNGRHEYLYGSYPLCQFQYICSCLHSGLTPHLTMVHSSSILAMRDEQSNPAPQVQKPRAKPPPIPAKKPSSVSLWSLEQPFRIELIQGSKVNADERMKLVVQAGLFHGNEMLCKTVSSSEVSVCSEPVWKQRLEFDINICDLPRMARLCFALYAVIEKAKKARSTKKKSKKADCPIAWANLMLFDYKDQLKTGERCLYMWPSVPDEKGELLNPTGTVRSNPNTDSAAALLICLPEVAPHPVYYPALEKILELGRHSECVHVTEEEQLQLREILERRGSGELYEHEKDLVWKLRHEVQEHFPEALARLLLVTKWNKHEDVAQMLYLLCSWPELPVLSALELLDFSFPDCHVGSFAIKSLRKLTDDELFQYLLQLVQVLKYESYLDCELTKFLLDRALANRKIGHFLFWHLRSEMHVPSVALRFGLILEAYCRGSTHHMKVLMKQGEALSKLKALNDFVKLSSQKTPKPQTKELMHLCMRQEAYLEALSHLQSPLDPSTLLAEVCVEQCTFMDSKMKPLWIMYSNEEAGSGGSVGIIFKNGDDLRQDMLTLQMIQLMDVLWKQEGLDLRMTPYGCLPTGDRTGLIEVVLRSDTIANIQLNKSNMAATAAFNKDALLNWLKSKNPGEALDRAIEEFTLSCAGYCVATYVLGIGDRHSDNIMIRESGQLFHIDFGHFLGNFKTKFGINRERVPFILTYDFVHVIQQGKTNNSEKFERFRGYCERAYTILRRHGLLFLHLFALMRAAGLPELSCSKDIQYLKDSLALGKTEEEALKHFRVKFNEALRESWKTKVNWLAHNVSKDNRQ
Sequence of PI3Kδ (P27986 whole entry partner): as the sequence (P27986 whole entry partner) above

For orientation: IC50 means the midpoint of a concentration-inhibition curve. For `Cc1cc(C(C)Nc2ccccc2)c2nc(N3CCOCC3)cc(=O)n2c1` (centres unmarked) [TGX-221, 7-methyl-2-(4-morpholinyl)-9-[1-(phenylamino)ethyl]-4H-pyrido[1,2-a]pyrimidin-4-one], the concentration for half-maximal inhibition (IC50) in assay [1] (PIP2 as substrate, read-out: PI3K biochemical IC50 PI3Kα) is 1.78 µM; in assay [1] (Table 5, read-out: Biochemical IC50 PI3Kα) it was 1.78 µM; in assay [2], 0.142 µM; in assay [3] (IGF1 stimulation, Table 5, read-out: pAKT (T308) IC50 T-47D PI3Kα H1047R IGF1) it was 27.9 µM; in assay [3] (PI3KαH1047R, IGF1, Table 6, read-out: Cellular pAKT (T308) IC50 T-47D), 27.9 µM; in assay [4], above 30 µM. In assay [5], the IC50 was above 30 µM. Also, the “effect on PI3Kα mediated activity in these cell models” value in assay [6] is “no effect”.
